From US20200024278A1, “COMPOSITION COMPRISING ANTIBIOTIC COMPOUND AND AN HETEROCYCLIC COMPOUND AND THEIR USE IN PREVENTING OR TREATING BACTERIAL INFECTIONS” (MUTABILIS, priority 2016, published 2020)

Columns and labels:
Assay in all cases: MIC, broth microdilution (CLSI), substance alone or ATB combined with compound at 4 or 8 μg/mL
SPN 49619 = format: cell-based, S. pneumoniae; settings: SPN 49619
Method in brief: (§1)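 CLSI M7-A7 broth microdilution. ca-MHB, 5·10^5 CFU/mL log-phase cells, 16-20 h, 35° C, ambient air. Fosfomycin wells + 25 μg/ml glucose-6-phosphate. Visual MIC read.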

ECL P99 = format: cell-based, E. cloacae; settings: ECL P99
Method in brief: as §1

SAU 29213 = format: cell-based, S. aureus; settings: SAU 29213
Method in brief: as §1

PAE UFR90 = format: cell-based, P. aeruginosa; settings: PAE UFR90
Method in brief: as §1

PAE UFR48 = format: cell-based, P. aeruginosa; settings: PAE UFR48
Method in brief: as §1

PAE 105250 = format: cell-based, P. aeruginosa; settings: PAE 105250
Method in brief: as §1

Compound: C[C@@H](O)[C@H]1C(=O)N2C(C(=O)O)=C(SCCN=CN)C[C@H]12 [IMI]
- MIC ATB combined with Example 11 @8 μg/ml (SPN 49619; with Example 11 at 8 μg/ml): <=0.031 μg/mL
- MIC ATB combined with Example 12 @8 μg/ml (SPN 49619; with Example 12 at 8 μg/ml): <0.031 µg/mL
- MIC ATB combined with Example 13 @8 μg/ml (SPN 49619; with Example 13 at 8 μg/ml): <=0.031 μg/mL
- MIC ATB combined with Example 14 @8 μg/ml (SPN 49619; with Example 14 at 8 μg/ml): <0.031 µg/mL
- MIC ATB combined with Example 15 @4 μgml (SPN 49619; with Example 15 at 4 μg/ml): <0.031 µg/mL
- MIC ATB combined with Example 16 @4 μg/ml (SPN 49619; with Example 16 at 4 μg/ml): <0.031 µg/mL
- MIC ATB alone (ECL P99; antibiotic alone): 0.25 µg/mL
- MIC ATB combined with Example 1 @8 μg/ml (ECL P99; with Example 1 @8 μg/ml): <0.031 µg/mL
- MIC ATB combined with Example 1 @8 μg/ml (ECL P99; with Example 1 at 8 μg/ml): <0.031 µg/mL
- MIC ATB combined with Example 7 @8 μgml (ECL P99; with Example 7 at 8 μg/ml): 1 µg/mL
- MIC ATB combined with Example 9 @4 μg/ml (ECL P99; with Example 9 @4 μg/ml): <0.031 µg/mL
- MIC ATB combined with Example 9 @4 μg/ml (ECL P99; with Example 9 at 4 μg/ml): <0.031 µg/mL
- MIC ATB combined with Example 11 @8 μg/ml (ECL P99; with Example 11 at 8 μg/ml): <0.031 µg/mL
- MIC ATB combined with Example 12 @8 μg/ml (ECL P99; with Example 12 at 8 μg/ml): <0.031 µg/mL
- MIC ATB combined with Example 13 @8 μg/ml (ECL P99; with Example 13 at 8 μg/ml): 0.063 µg/mL
- MIC ATB combined with Example 14 @8 μg/ml (ECL P99; with Example 14 at 8 μg/ml): <0.031 µg/mL
- MIC ATB combined with Example 15 @4 μgml (ECL P99; with Example 15 at 4 μg/ml): <0.031 µg/mL
- MIC ATB combined with Example 16 @4 μg/ml (ECL P99; with Example 16 at 4 μg/ml): <0.031 µg/mL
- MIC ATB alone (SAU 29213; antibiotic alone): 0.016 µg/mL
- MIC ATB combined with Example 1 @8 μg/ml (SAU 29213; with Example 1 @8 μg/ml): <=0.031 μg/mL
- MIC ATB combined with Example 1 @8 μg/ml (SAU 29213; with Example 1 at 8 μg/ml): <=0.031 μg/mL
- MIC ATB combined with Example 7 @8 μgml (SAU 29213; with Example 7 at 8 μg/ml): 0.25 µg/mL
- MIC ATB combined with Example 9 @4 μg/ml (SAU 29213; with Example 9 @4 μg/ml): <0.031 µg/mL
- MIC ATB combined with Example 9 @4 μg/ml (SAU 29213; with Example 9 at 4 μg/ml): <0.031 µg/mL
- MIC ATB combined with Example 11 @8 μg/ml (SAU 29213; with Example 11 at 8 μg/ml): <0.031 µg/mL
- MIC ATB combined with Example 12 @8 μg/ml (SAU 29213; with Example 12 at 8 μg/ml): <0.031 µg/mL
- MIC ATB combined with Example 13 @8 μg/ml (SAU 29213; with Example 13 at 8 μg/ml): <=0.031 μg/mL
- MIC ATB combined with Example 14 @8 μg/ml (SAU 29213; with Example 14 at 8 μg/ml): <0.031 µg/mL
- MIC ATB combined with Example 15 @4 μgml (SAU 29213; with Example 15 at 4 μg/ml): <0.031 µg/mL
- MIC ATB combined with Example 16 @4 μg/ml (SAU 29213; with Example 16 at 4 μg/ml): <0.031 µg/mL
- MIC ATB alone (PAE UFR90; antibiotic alone): 2 µg/mL
- MIC ATB combined with Example 1 @8 μg/ml (PAE UFR90; with Example 1 @8 μg/ml): <0.031 µg/mL
- MIC ATB combined with Example 1 @8 μg/ml (PAE UFR90; with Example 1 at 8 μg/ml): <0.031 µg/mL
- MIC ATB combined with Example 7 @8 μgml (PAE UFR90; with Example 7 at 8 μg/ml): 32 µg/mL
- MIC ATB combined with Example 9 @4 μg/ml (PAE UFR90; with Example 9 @4 μg/ml): 1 µg/mL
- MIC ATB combined with Example 9 @4 μg/ml (PAE UFR90; with Example 9 at 4 μg/ml): 1 µg/mL
- MIC ATB combined with Example 11 @8 μg/ml (PAE UFR90; with Example 11 at 8 μg/ml): 1 µg/mL
- MIC ATB combined with Example 12 @8 μg/ml (PAE UFR90; with Example 12 at 8 μg/ml): 2 µg/mL
- MIC ATB combined with Example 13 @8 μg/ml (PAE UFR90; with Example 13 at 8 μg/ml): 16 µg/mL
- MIC ATB combined with Example 14 @8 μg/ml (PAE UFR90; with Example 14 at 8 μg/ml): 2 µg/mL
- MIC ATB combined with Example 15 @4 μgml (PAE UFR90; with Example 15 at 4 μg/ml): 2 µg/mL
- MIC ATB combined with Example 16 @4 μg/ml (PAE UFR90; with Example 16 at 4 μg/ml): 4 µg/mL
- MIC ATB alone (PAE UFR48; antibiotic alone): 8 µg/mL
- MIC ATB combined with Example 1 @8 μg/ml (PAE UFR48; with Example 1 @8 μg/ml): <0.031 µg/mL
- MIC ATB combined with Example 1 @8 μg/ml (PAE UFR48; with Example 1 at 8 μg/ml): <0.031 µg/mL
- MIC ATB combined with Example 7 @8 μgml (PAE UFR48; with Example 7 at 8 μg/ml): >32 µg/mL
- MIC ATB combined with Example 9 @4 μg/ml (PAE UFR48; with Example 9 @4 μg/ml): 8 µg/mL
- MIC ATB combined with Example 9 @4 μg/ml (PAE UFR48; with Example 9 at 4 μg/ml): 16 µg/mL
- MIC ATB combined with Example 11 @8 μg/ml (PAE UFR48; with Example 11 at 8 μg/ml): >32 µg/mL
- MIC ATB combined with Example 12 @8 μg/ml (PAE UFR48; with Example 12 at 8 μg/ml): >32 µg/mL
- MIC ATB combined with Example 13 @8 μg/ml (PAE UFR48; with Example 13 at 8 μg/ml): >32 µg/mL
- MIC ATB combined with Example 14 @8 μg/ml (PAE UFR48; with Example 14 at 8 μg/ml): >32 µg/mL
- MIC ATB combined with Example 15 @4 μgml (PAE UFR48; with Example 15 at 4 μg/ml): >32 µg/mL
- MIC ATB combined with Example 16 @4 μg/ml (PAE UFR48; with Example 16 at 4 μg/ml): >32 µg/mL
- MIC ATB alone (PAE 105250; antibiotic alone): 1 µg/mL
- MIC ATB combined with Example 1 @8 μg/ml (PAE 105250; with Example 1 @8 μg/ml): <=0.031 μg/mL
- MIC ATB combined with Example 1 @8 μg/ml (PAE 105250; with Example 1 at 8 μg/ml): <=0.031 μg/mL
- MIC ATB combined with Example 7 @8 μgml (PAE 105250; with Example 7 at 8 μg/ml): 16 µg/mL
- MIC ATB combined with Example 9 @4 μg/ml (PAE 105250; with Example 9 @4 μg/ml): 1 µg/mL
- MIC ATB combined with Example 9 @4 μg/ml (PAE 105250; with Example 9 at 4 μg/ml): 1 µg/mL
- MIC ATB combined with Example 11 @8 μg/ml (PAE 105250; with Example 11 at 8 μg/ml): 1 µg/mL
- MIC ATB combined with Example 12 @8 μg/ml (PAE 105250; with Example 12 at 8 μg/ml): 2 µg/mL
- MIC ATB combined with Example 13 @8 μg/ml (PAE 105250; with Example 13 at 8 μg/ml): 8 µg/mL
- MIC ATB combined with Example 14 @8 μg/ml (PAE 105250; with Example 14 at 8 μg/ml): 2 µg/mL
- MIC ATB combined with Example 15 @4 μgml (PAE 105250; with Example 15 at 4 μg/ml): 2 µg/mL
- MIC ATB combined with Example 16 @4 μg/ml (PAE 105250; with Example 16 at 4 μg/ml): 2 µg/mL
